Source: a melting point compilation (Tetko et al.)

Row | melting point [°C] | Compound
1 | 168 | Cc1ccc(-c2cc(NN=c3c(C)nc4ccccc4[nH]c3=O)[nH]n2)cc1
2 | 147 | O=C(c1ccc(Cl)cc1)c1noc(-c2ccc(Cl)cc2)c1S(=O)(=O)c1ccccc1
3 | 5 | C=CCCCCCCC(=O)O
4 | 111 to 114 | O=C(Oc1c(F)c(F)c(F)c(F)c1F)c1ccc(OC2CCOCC2)cc1
5 | 81 | COC(=O)CC1CCC(NC(=O)OC(C)(C)C)CC1 (configuration not stated)
6 | 232 to 233 | C1OC2COCOC2C2OCOCC2O1 (configuration not stated)
7 | 41 | Cc1ccc(C#N)cc1Br
8 | 298 | CC(=O)OC1(C(C)=O)CCC2C3CC(C)C4=CC(=O)C=CC4(C)C3(F)C(O)CC21C (configuration not stated)
9 | 154 to 156 | NC(=S)NN=Cc1ccccc1
10 | 223 to 224 | CC12CCC3C(CCC(CC(=O)O)C3(C)CC(=O)O)C1CCC2=O (configuration not stated)
11 | 81 | Cc1cccc(Cl)c1C#N
12 | 208 | CC(C=CC=C(C)C=CC12OC1(C)CC(O)CC2(C)C)=CC=CC=C(C)C=CC=C(C)C=CC12OC1(C)CC(O)CC2(C)C (configuration not stated)
13 | 233 to 234 | O=C(O)c1cc2cc(Br)ccc2s1
14 | 161 | CCCCC(C#N)(Cn1ccnc1)c1ccccc1 (configuration not stated)
15 | 263 to 265 | COC(=O)c1cc2c(=O)oc3ccccc3c2nc1N
16 | 104 to 106 | Cn1ccnc1C(=O)O
17 | 45 to 46 | CNCc1ccc(-c2cncnc2)cc1
18 | 99 to 100 | O=C(Nc1ccccc1)C1CCCC/C1=C\Cc1ccccc1 (configuration not stated)
19 | -37 | CC(C)S(=O)(=O)O
20 | 200 to 202 | COc1nc(N)nc(SC)n1
21 | 126 to 128 | O=S1(=O)CCN(Cc2cccs2)CC1
22 | 204 to 206 | CCOC(=O)c1[nH]cnc1C
23 | 165 to 166 | CC(C)(C)OC(=O)N1CCN(c2ccccc2C(=O)O)CC1
24 | 68 | N#Cc1ccc(F)c(C(F)(F)F)c1
25 | 107 | CC(NC(=O)COCCN1C(=O)c2ccccc2C1=O)[P+]([O-])(Oc1ccccc1)Oc1ccccc1 (configuration not stated)
26 | 143 | CC1=NN(c2ccccc2)C(=O)C1C(=O)C(F)(F)F (configuration not stated)
27 | 164 to 166 | OCCCc1nc2ccccc2[nH]1
28 | 200 | Cc1[nH]c2ccccc2c1CC(=O)O

Second part, the molecule before the results:

Row | Compound | melting point [°C]
29 | CC1(C)C2CCC1(C)C(NC(=O)c1ccc([N+](=O)[O-])cc1)C2NC(=O)c1ccc([N+](=O)[O-])cc1 (configuration not stated) | 170
30 | Cn1nc(C(C)(C)C)cc1N | 157
31 | O=Cc1cccc(CN2CCOCC2)c1 | 63 to 64
32 | CCOc1ccc(NC(N)=O)cc1 | 173
33 | CC(O)C1CC1 (configuration not stated) | -32.1
34 | C[Si](C)(O)c1ccc([Si](C)(C)O)cc1 | 135
35 | CC(=O)c1ccc(-c2ccccc2OC(F)(F)F)o1 | 40 to 47
36 | Cc1ccccc1NC(=O)C(C)(C)C | 111 to 115
37 | N#Cc1cccc(Cl)n1 | 87
38 | O=[N+]([O-])c1ccc(-c2cn3c(n2)sc2ccccc23)cc1 | 285 to 286
39 | OC1(C#CC#CC2(O)CCCCC2)CCCCC1 | 175
40 | O=S(=O)(Cl)Cc1ccc(Br)cc1 | 117 to 121
41 | O=[N+]([O-])c1ccc(-c2ccc(/N=N/c3ccccc3)cc2)cc1 | 178 to 179
42 | Fc1cccc(F)c1 | -59
43 | CCC1(O)CCC2(C)C(CCC3C4CCC(=O)C4(C)CCC32)C1 (configuration not stated) | 113 to 116
44 | CC12CCC(=O)C=C1CCC1C2C(O)CC2(C)C(C(=O)CO)CCC12 (configuration not stated) | 181
45 | CCC(C)c1ccccc1 (configuration not stated) | -75
46 | ClC=CCl | -80
47 | CCOC(=O)c1cc2c(=O)oc3ccccc3c2nc1NC | 232 to 233
48 | Cc1ccc(S(=O)(=O)n2ccc(C(=O)O)c2)cc1 | 202 to 206
49 | CC(C)(C)P(c1ccc2ccccc2c1-c1cccc2ccccc12)C(C)(C)C | 147 to 149
50 | Cc1cc(C(=O)Nc2ccc(Cl)cc2)no1 | 155 to 157

Row | Compound | melting point [°C]
51 | CCCCN(CCCC)CCCC | -70
52 | C[C@]12CCC(O)CC1=CC[C@@H]1[C@@H]2CC[C@]2(C)C(O)CC[C@@]12C (some centres not stated) | 182 to 184
53 | CC(C)CC(N)CC(=O)O (configuration not stated) | 249 to 250
54 | CCO[Si](c1ccccc1)(c1ccccc1)c1ccccc1 | 65
55 | CC(=O)C=C(C)C | -53
56 | Nc1ccc(N)c2ccccc12 | 120
57 | O=C(O)CCCNC(=O)CCCCC(=O)NCCCC(=O)O | 145
58 | O=C(Oc1c(F)c(F)c(F)c(F)c1F)c1ccc(-c2cnco2)cc1 | 141 to 143
59 | c1ccc(-c2nc3ccccc3[nH]2)nc1 | 223
60 | COc1cc(/C=N/c2ccccc2)ccc1O | 140
61 | CC(C)OC(=O)C(C)N(C(=O)c1ccccc1)c1ccc(F)c(Cl)c1 (configuration not stated) | 84
62 | O=c1cc[nH]c2c1cnn2-c1ccccc1 | 166 to 168
63 | CCC(=C(c1ccccc1)c1ccc(OCCN(C)C)cc1)c1ccccc1 | 96
64 | CC1CCCC(C)C1 (configuration not stated) | -90.1
65 | Nc1ccc2ccc3ccccc3c2c1 | 143
66 | CC(S)C(=O)NCC(=O)O (configuration not stated) | 96
67 | Cc1ccc(N2CCNCC2)cc1C | 63
68 | O=C(OCCO)c1ccccc1O | 37
69 | N#C/C(=C/c1ccc(Cl)cc1Cl)c1nc(-c2ccc([N+](=O)[O-])cc2)cs1 | 210
70 | CN(N=O)c1ccc(N=O)cc1 | 101
71 | CCOC(=O)[C@H](Cc1ccc(O)cc1)NC(=O)c1ccccc1 | 118 to 121
72 | Cc1nn(C)c(Oc2ccccc2)c1C=NOCc1ccc(C(=O)OC(C)(C)C)cc1 | 102

Row | Compound | melting point [°C]
73 | Nc1ccc(-c2ccc(N)c(N)c2)cc1N | 176
74 | Nc1ccc(S(=O)(=O)c2ccc(NC(=O)CCC(=O)O)cc2)cc1 | 157
75 | CCC(=O)c1cccc([N+](=O)[O-])c1 | 101
76 | OCCNC(=S)C(=S)NCCO | 93.3
77 | CCCCCCCCCCCCOS(=O)(=O)c1ccc(C)cc1 | 28.5 to 31.5
78 | Nc1cc(Br)ccn1 | 146
79 | O=C1CCN(C(=O)CCl)N1 | 146
80 | Cc1ccc(C(=O)c2cc3c(cc2Br)OCCO3)cc1 | 110 to 112
81 | CC[C@@]1(O)CC[C@]2(C)[C@H]3CC[C@]4(C)C(O)CC[C@H]4[C@@H]3CC[C@@]2(C)C1 (some centres not stated) | 168 to 169
82 | CN(C)c1ccc(N=O)cc1 | 92.5
83 | FC(F)(Cl)CCl | -101
84 | C=CC(N)CCC(=O)O (configuration not stated) | 209
85 | COC(=O)c1ccc(C)c(C)c1 | 36 to 38
86 | Cc1cc2occc(=O)c2cc1Cl | 171
87 | COc1ccccc1NC(=O)C(C(F)(F)F)C(F)(F)F | 163
88 | O=C1OC(=O)c2c(F)ccc(F)c21 | 217 to 221
89 | CCOC(=O)C(C(N)=S)=C1NN=C(c2ccc(Cl)cc2)O1 | 174 to 177
90 | CO[C@@H](C)[C@H](N)C(=O)O | 220 to 224
91 | CC(C)(C)OC(=O)NC(CC(N)=O)C(=O)O (configuration not stated) | 179 to 182
92 | COC(=N)C1=CC(O)C(O)C(CO)O1 (configuration not stated) | 196
